Legend:
[1] = system: male CD1 mice; assay: In vivo predictive anesthetic test (loss of righting reflex)
Experimental: c) In Vivo Determination of Predictive Anesthetic Activity
The in vivo effects of these compounds were assessed by a predictive anesthetic test in mice as the loss of righting reflex (Kralic et al., Neuropharmacology, 43(4), 685-689 2002; Belelli et al., Neuropharmacology, 45, 57-71, 2003).
Groups of 5-8 male CD1 mice, weighing 22-26 g at the time of test, were used. The test compounds were administered at 98.0 μmol/kg by mean of intraperitoneal injection. Compounds were suspended in 0.25% agar with one drop of Tween in a volume of 10 mL/kg.

[2] = system: male CD1 mice; assay: In vivo predictive sedation-hypnosis test (traveled distance); details: Mus musculus, ip, 0.5 h, traveled distance over 30 min versus control, read-out: % inhib motor activity; for inhibition in vivo at 0.98 µmol/kg: 0.98 μmol/kg intraperitoneal; for inhibition in vivo at 98 µmol/kg: 98.0 μmol/kg intraperitoneal
Experimental: b) In Vivo Determination of Predictive Sedative-hypnotic Action
The in vivo effects of these compounds were assessed by a predictive sedation-hypnosis test in mice (D. J. Sanger et al., Eur. J. Pharmacol., 313, 35-42, 1996; and G. Griebel et al., Psychopharmacology, 146, 205-213, 1999).
Groups of 5-8 male CD1 mice, weighing 22-26 g at the time of test, were used. […] Compounds were suspended in 0.25% agar with one drop of Tween in a volume of 10 mL/kg. Control animals were given the vehicle alone. Using a Smart System (Panlab, S. L., Spain) the traveled distance in cm is recorded for each mouse at 5-minutes intervals during a period of 30 minutes after dosing. The inhibition percentage of traveled distance of treated animals versus control animals (the first 5 minutes were discarded) was calculated.

[3] = system: α2-GABAA receptor; assay: Ligand-binding assay, radiolabeled flumazenil competition, spinal cord membranes; details: rat spinal cord membranes, radiolabeled flumazenil 1 nM
Experimental: (§1) a) Ligand-binding Assays. Determination of the Affinity of Test Compounds for α1- and α2-GABAA Receptor
(§2) Male Sprague-Dawley rats weighing 200-250 g at the time of experiment were used. After decapitation of the animal, the cerebellum (tissue that mostly contains α1-GABAA receptor) and spinal cord (tissue that mostly contains α2-GABAA receptor) were removed. The membranes were prepared according to the method by J. Lameh et al. (Prog. Neuro-Psychopharmacol. Biol. Psychiatry, 24, 979-991, 2000) and H. Noguchi et al. (Eur J Pharm, 434, 21-28, 2002) with slight modifications. Once the tissues weighed, they were suspended in 50 mM Tris.HCl (pH 7.4), 1:40 (v/v), or sucrose 0.32 M in the case of spinal cord, homogenized and then centrifuged at 20000 g for 10 minutes at 7° C. The resulting pellet was resuspended under the same conditions and centrifuged again. The pellet was finally resuspended on a minimum volume and kept at −80° C. overnight. A slight modification was used in the case of spinal cord at the first centrifugation step. Centrifugation speed was at 1000 g and the supernatant was collected instead of discarded as in cerebellum. Then, supernatant was centrifuged at 20000 g and resuspended twice more under the same conditions described above for cerebellum. On the next day, the process was repeated until the final pellet was resuspended at a ratio of 1:10 (v/v) in the case of cerebellum and at a ratio of 1:5 (v/v) in the case of spinal cord.
(§3) Affinity was determined by competitive tests using radiolabeled flumazenil as ligand. The tests were performed according to the methods described by S. Arbilla et al. (Eur. J. Pharmacol., 130, 257-263, 1986); and Y. Wu et al. (Eur. J. Pharmacol., 278, 125-132, 1995) using 96-well microtiter plates. The membranes containing the study receptors, flumazenil (radiolabeling at a final concentration of 1 nM) and ascending concentrations of test compounds (in a total volume of 230 μl in 50 mM [pH 7.4] Tris.HCl buffer) were incubated. Simultaneously, the membranes were only incubated with the radiolabeled flumazenil (total binding, 100%) and in the presence of an elevated concentration of unradiolabeled flumazenil (non-specific binding, % estimation of radiolabeled ligand). The reactions started on adding the radiolabeled ligand followed by incubation for 60 minutes at 4° C. At the end of the incubation period, 200 μl of reaction were transferred to a multiscreen plate (Millipore) and filtered using a vacuum manifold and then washed three times with cold test buffer. The multiscreen plates were equipped with a GF/B filter that retained the membranes containing the receptors and the radiolabeled ligand which had been bound to the receptors. After washing, the plates were left till dry. Once dried, scintillation liquid was added and left under stirring overnight. The next day the plates were counted using a Perkin-Elmer Microbeta scintillation counter.
(§4) For analysis of the results the percentage of specific binding for every concentration of test compound was calculated as follows: specific binding−(X−N/T−N)×100 where, X: amount of bound ligand for every concentration of compound. T: total binding, maximum amount bound to the radiolabeled ligand. N: non-specific binding, amount of radiolabeled ligand bound in a non-specific way irrespective of the receptor used.
(§5) Every concentrations of compound were tested in triplicate and their mean values were used to determine the experimental values of % specific binding versus the concentration of compound. Affinity data are expressed as % inhibition at 10^−5M and 10^−7M concentrations.

[4] = system: α1-GABAA receptor; assay: Ligand-binding assay, radiolabeled flumazenil competition, cerebellum membranes; details: rat cerebellum membranes, radiolabeled flumazenil 1 nM
Experimental: as §1, §2, §3, §4, §5

Compound | % of animals with loss of righting reflex ([1]; 98.0 μmol/kg intraperitoneal) [%] | inhibition in vivo at 0.98 µmol/kg [2] [%] | inhibition in vivo at 98 µmol/kg [2] [%] | % inhib 10^−5 M, affinity for the α2-subunit of the GABAA receptor [3] [%] | % inhib 10^−7 M, affinity for the α2-subunit of the GABAA receptor [3] [%] | % inhib 10^−5 M, affinity for the α1-subunit of the GABAA receptor [4] [%] | % inhib 10^−7 M, affinity for the α1-subunit of the GABAA receptor [4] [%] | % of animals with loss of righting reflex ([1]; double dose than compounds of the present invention) [%]
CCCN(CCC)C(=O)Cc1c(-c2ccc(C)cc2)nc2ccc(Cl)nn12 [Example 2, 2-(6-Chloro-2-p-tolyl-imidazo[1,2-b]pyridazin-3-yl)-N,N-dipropyl-acetamide] | 90 | 38.4 | 96.7 | – | – | – | – | –
CCCCN(CCCC)C(=O)Cc1c(-c2ccc(C)cc2)nc2ccc(Cl)nn12 [Example 3, N,N-Dibutyl-2-(6-chloro-2-p-tolyl-imidazo[1,2-b]pyridazin-3-yl)-acetamide] | 100 | 14.6 | 90.9 | – | – | – | – | –
COc1ccc2nc(-c3ccc(F)cc3)c(CC(=O)N3CCCCC3)n2n1 [Example 65, 2-[2-(4-Fluoro-phenyl)-6-methoxy-imidazo[1,2-b]pyridazin-3-yl]-1-piperidin-1-yl-ethanone] | – | – | 95.5 | 78.5 | 16.3 | 99.5 | 58.5 | –
CCOc1ccc2nc(-c3ccc(F)cc3)c(CC(=O)N(CC)CC)n2n1 [Example 66, 2-[6-Ethoxy-2-(4-fluoro-phenyl)-imidazo[1,2-b]pyridazin-3-yl]-N,N-diethyl-acetamide] | – | – | 96 | 79.4 | 7.8 | 98.3 | 50.4 | –
CCOc1ccc2nc(-c3ccc(F)cc3)c(CC(=O)N3CCCCC3)n2n1 [Example 67, 2-[6-Ethoxy-2-(4-fluoro-phenyl)-imidazo[1,2-b]pyridazin-3-yl]-1-piperidin-1-yl-ethanone] | – | – | 90.8 | 83.7 | 8.8 | 98.9 | 42.2 | –
CCN(CC)C(=O)Cc1c(-c2ccc(OC)cc2)nc2ccc(C)nn12 [Example 70, N,N-Diethyl-2-[2-(4-methoxy-phenyl)-6-methyl-imidazo[1,2-b]pyridazin-3-yl]-acetamide] | – | – | 87 | 80.3 | 23.6 | 99.9 | 84.5 | –
CCCN(CCC)C(=O)Cc1c(-c2ccc(OC)cc2)nc2ccc(C)nn12 [Example 71, 2-[2-(4-Methoxy-phenyl)-6-methyl-imidazo[1,2-b]pyridazin-3-yl]-N,N-dipropyl-acetamide] | – | – | 96 | 88.5 | 50.6 | 100.2 | 95.0 | –
COc1ccc(-c2nc3ccc(C)nn3c2CC(=O)N2CCCCC2)cc1 [Example 73, 2-[2-(4-Methoxy-phenyl)-6-methyl-imidazo[1,2-b]pyridazin-3-yl]-1-piperidin-1-yl-ethanone] | – | – | 94.1 | 77.0 | 20.6 | 99.9 | 76.5 | –
CCN(CC)C(=O)Cc1c(-c2ccc(OC)cc2)nc2ccc(OC)nn12 [Example 75, N,N-Diethyl-2-[6-methoxy-2-(4-methoxy-phenyl)-imidazo[1,2-b]pyridazin-3-yl]-acetamide] | – | – | 92.6 | 68.8 | 9.3 | 99.4 | 52.1 | –
CCCN(CC1CC1)C(=O)Cc1c(-c2ccc(C)cc2)nc2ccc(C)nn12 [Example 82, N-Cyclopropylmethyl-2-(6-methyl-2-p-tolyl-imidazo[1,2-b]pyridazin-3-yl)-N-propyl-acetamide] | 30 | – | 94.2 | – | – | – | – | –
Cc1ccc(-c2nc3ccc(C)nn3c2CC(=O)Nc2nccs2)cc1 [Example 83, 2-(6-Methyl-2-p-tolyl-imidazo[1,2-b]pyridazin-3-yl)-N-thiazol-2-yl-acetamide] | – | – | 88.9 | 93.1 | 57.7 | 99.6 | 97.6 | –
Cc1ccc(-c2nc3ccc(C)nn3c2CC(=O)N(C(C)C)C(C)C)cc1 [Example 84, N,N-Diisopropyl-2-(6-methyl-2-p-tolyl-imidazo[1,2-b]pyridazin-3-yl)-acetamide] | – | – | 90.8 | 63.9 | 3.1 | 100.0 | 91.7 | –
Cc1ccc(-c2nc3ccc(C)nn3c2CC(=O)Nc2ccccc2)cc1 [Example 86, 2-(6-Methyl-2-p-tolyl-imidazo[1,2-b]pyridazin-3-yl)-N-phenyl-acetamide] | – | – | 92.6 | 80.9 | 23.0 | 99.5 | 75.9 | –
Cc1ccc(-c2nc3ccc(C)cn3c2CC(=O)N(C)C)cc1 [zolpidem, N,N,6-trimethyl-2-p-tolylimidazo[1,2-a]pyridine-3-acetamide, reference compound] | – | 18.3 | 91.7 | 74.1 | 19.9 | 99.4 | 73.6 | 80
